The target in the assay is T1, STING (stimulator of interferon genes) (Homo sapiens, UniProt Q86WV6).
T1 construct: gene STING1; endogenous STING in THP1-ISG-luc cells
As to the kind of experiment: THP1-ISG-luc ISRE reporter assay with PFO permeabilisation; IFN-beta response lost in STING-KO THP1 cells. It counts as cell-based. (Reporter assays use an easily measured gene product as a stand-in for the process of interest.)

The record followed here is paper PMC11087554, “The STING agonist IMSA101 enhances chimeric antigen receptor T cell function by inducing IL-18 secretion” (Nature Communications, 2024).

T1 sequence (Q86WV6 whole entry, looked up): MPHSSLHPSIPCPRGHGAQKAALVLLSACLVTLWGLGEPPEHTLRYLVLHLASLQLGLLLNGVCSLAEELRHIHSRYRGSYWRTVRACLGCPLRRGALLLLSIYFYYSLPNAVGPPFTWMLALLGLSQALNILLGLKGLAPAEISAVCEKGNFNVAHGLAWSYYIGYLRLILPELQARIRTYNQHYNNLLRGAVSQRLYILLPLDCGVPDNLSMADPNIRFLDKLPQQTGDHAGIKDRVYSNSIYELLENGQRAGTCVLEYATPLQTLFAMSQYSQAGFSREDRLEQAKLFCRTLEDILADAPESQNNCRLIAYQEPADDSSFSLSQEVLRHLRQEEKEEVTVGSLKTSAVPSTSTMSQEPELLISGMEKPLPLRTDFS

In the case of IMSA101, the concentration giving a half-maximal response (EC50) (as a rule, the concentration needed to bring the measured effect to its halfway point) is 20 to 30 nM.
